# Data: US8143408B2, “N-(8-heteroaryltetrahydronaphtalene-2yl) or N-(5-heteroarylchromane-3-yl) carboxamide derivatives for the treatment of pain” (AstraZeneca AB, priority 2007, dated 2012)
# Target: T1, Nav1.7 voltage-gated sodium channel (Homo sapiens, UniProt Q15858)
# T1 construct: Gene(s) encoding the full-length protein of the voltage-gated sodium channel of interest are cloned and expressed; expressed in transfected cells
# Test: Whole-cell voltage clamp electrophysiology assay
# Format: cell-based
# Conditions: cells stably expressing the voltage-gated sodium channel of interest
# Excerpt: Gene(s) encoding the full-length protein of the voltage-gated sodium channel of interest are cloned and expressed under a suitable promoter in a suitable cell line, as well known in the art. […] Suitable screening assays are as follows.
# Electrophysiological studies can be performed using automated patch-clamp electrophysiology platforms, like IonWorks HT, IonWorks Quattro, PatchXpress, QPatch or any other suitable platform. […] Suitable extracellular and intracellular buffer for such experiments are applied according to the instructions given by the manufacturer of the automated patch-clamp platforms. Cells that express the voltage-gated sodium channel protein of interest are exposed to drugs through the pipetting system integrated in the platforms. A suitable voltage stimulus protocol is used to activate the voltage-gated sodium channel proteins of interest through depolarisation from a defined holding potential.
# Electrophysiological studies can also be performed using the whole cell configuration of the standard patch clamp technique. In this assay, cells that express the voltage-gated sodium channel protein of interest are exposed to the drugs by conventional microperfusion systems and a suitable voltage stimulus protocol is used to activate the voltage-gated sodium channels.
# T1 sequence (Q15858 whole entry): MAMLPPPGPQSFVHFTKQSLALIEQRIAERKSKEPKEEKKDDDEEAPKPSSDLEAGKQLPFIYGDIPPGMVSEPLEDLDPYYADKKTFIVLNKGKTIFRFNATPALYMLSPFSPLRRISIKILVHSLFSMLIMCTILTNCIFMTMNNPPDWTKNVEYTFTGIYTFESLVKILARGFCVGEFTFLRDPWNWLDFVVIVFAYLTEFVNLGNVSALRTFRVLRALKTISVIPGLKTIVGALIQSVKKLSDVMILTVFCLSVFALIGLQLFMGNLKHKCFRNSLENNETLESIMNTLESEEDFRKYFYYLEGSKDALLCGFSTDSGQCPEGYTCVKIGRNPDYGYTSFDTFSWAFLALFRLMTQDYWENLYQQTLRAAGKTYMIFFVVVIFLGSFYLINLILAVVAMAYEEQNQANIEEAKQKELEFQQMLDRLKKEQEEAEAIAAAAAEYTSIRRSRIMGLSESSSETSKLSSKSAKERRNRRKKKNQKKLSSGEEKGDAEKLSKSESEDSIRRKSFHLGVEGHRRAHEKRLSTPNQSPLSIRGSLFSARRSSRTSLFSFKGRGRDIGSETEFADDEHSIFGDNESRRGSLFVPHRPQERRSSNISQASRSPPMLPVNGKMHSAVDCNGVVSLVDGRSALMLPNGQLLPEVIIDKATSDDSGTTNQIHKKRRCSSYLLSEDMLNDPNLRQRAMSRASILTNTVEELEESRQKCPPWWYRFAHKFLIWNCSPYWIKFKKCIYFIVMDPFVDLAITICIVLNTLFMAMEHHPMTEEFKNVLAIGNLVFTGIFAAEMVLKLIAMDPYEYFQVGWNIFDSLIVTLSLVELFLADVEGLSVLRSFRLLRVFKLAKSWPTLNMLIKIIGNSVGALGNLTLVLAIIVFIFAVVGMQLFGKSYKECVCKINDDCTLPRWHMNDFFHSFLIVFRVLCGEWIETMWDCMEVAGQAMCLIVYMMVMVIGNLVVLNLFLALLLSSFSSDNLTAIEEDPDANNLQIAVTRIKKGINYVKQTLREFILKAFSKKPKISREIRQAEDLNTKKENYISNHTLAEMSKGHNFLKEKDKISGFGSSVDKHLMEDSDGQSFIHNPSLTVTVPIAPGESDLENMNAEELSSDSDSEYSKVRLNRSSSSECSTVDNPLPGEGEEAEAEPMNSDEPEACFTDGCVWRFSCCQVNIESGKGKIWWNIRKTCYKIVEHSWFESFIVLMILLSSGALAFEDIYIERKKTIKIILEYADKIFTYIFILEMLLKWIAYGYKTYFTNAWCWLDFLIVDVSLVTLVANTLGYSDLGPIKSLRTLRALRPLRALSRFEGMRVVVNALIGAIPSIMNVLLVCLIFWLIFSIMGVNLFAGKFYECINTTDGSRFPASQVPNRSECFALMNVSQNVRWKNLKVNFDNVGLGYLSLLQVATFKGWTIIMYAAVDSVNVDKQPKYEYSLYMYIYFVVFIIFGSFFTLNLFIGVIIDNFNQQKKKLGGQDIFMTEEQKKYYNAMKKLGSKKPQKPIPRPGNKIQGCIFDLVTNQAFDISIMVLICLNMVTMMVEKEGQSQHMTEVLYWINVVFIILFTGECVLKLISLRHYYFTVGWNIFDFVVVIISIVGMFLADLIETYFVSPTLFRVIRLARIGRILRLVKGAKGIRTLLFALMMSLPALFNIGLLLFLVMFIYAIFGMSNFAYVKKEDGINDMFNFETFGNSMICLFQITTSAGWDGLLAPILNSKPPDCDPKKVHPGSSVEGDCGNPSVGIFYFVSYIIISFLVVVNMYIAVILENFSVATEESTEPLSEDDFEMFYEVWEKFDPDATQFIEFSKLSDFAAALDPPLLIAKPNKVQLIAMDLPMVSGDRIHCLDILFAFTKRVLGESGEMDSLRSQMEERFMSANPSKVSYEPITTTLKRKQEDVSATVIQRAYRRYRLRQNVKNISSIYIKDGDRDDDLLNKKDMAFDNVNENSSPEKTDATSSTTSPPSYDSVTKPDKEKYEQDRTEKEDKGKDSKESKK
row,SMILES,IC50 [nM]
1,"Cc1noc(C)c1-c1cccc2c1C[C@H](NC(=O)c1ccc(OC(C)C)nc1)CC2 [Example 31, N-[(2R)-8-(3,5-dimethylisoxazol-4-yl)-1,2,3,4-tetrahydronaphthalen-2-yl]-6-isopropoxy-nicotinamide]",2510
2,"Cc1noc(C)c1-c1cccc2c1C[C@H](NC(=O)c1cnc(OC3CCCC3)nc1)CC2 [Example 33, 2-(cyclopentyloxy)-N-[(2R)-8-(3,5-dimethylisoxazol-4-yl)-1,2,3,4-tetrahydronaphthalen-2-yl]pyrimidine-5-carboxamide]",316
3,"CC(C)Oc1ccc(C(=O)N[C@@H]2CCc3cccc(-c4ccncc4F)c3C2)cn1 [Example 39, N-[(2R)-8-(3-fluoropyridin-4-yl)-1,2,3,4-tetrahydronaphthalen-2-yl]-6-isopropoxynicotinamide]",126
4,"O=C(N[C@@H]1CCc2cccc(-c3ccncc3F)c2C1)c1ccc(OCC(F)(F)F)nc1 [Example 40, N-[(2R)-8-(3-fluoropyridin-4-yl)-1,2,3,4-tetrahydronaphthalen-2-yl]-6-(2,2,2-trifluoroethoxy)nicotinamide]",50.1
5,"COc1ccc(-c2cccc3c2C[C@H](NC(=O)c2cnc(OCCC(F)(F)F)cn2)CO3)cn1 [Example 48, N-[(3S)-5-(6-methoxypyridin-3-yl)-3,4-dihydro-2H-chromen-3-yl]-5-(3,3,3-trifluoropropoxy)pyrazine-2-carboxamide]",631
6,"O=C(N[C@@H]1COc2cccc(-c3cccnc3)c2C1)c1ccc(OCCC(F)(F)F)nc1 [Example 51, N-[(3S)-5-pyridin-3-yl-3,4-dihydro-2H-chromen-3-yl]-6-(3,3,3-trifluoropropoxy)nicotinamide]",39.8
7,"Cc1nn(CC(C)C)nc1C(=O)N[C@@H]1COc2cccc(-c3cccnc3)c2C1 [Example 52, 2-isobutyl-5-methyl-N-[(3S)-5-pyridin-3-yl-3,4-dihydro-2H-chromen-3-yl]-2H-1,2,3-triazole-4-carboxamide]",3980
8,"CC(C)Oc1ccc(C(=O)N[C@@H]2COc3cccc(-c4cncnc4)c3C2)cn1 [Example 53, 6-isopropoxy-N-[(3S)-5-pyrimidin-5-yl-3,4-dihydro-2H-chromen-3-yl]nicotinamide]",251
9,"O=C(N[C@@H]1COc2cccc(-c3cncnc3)c2C1)c1ccc(OCCC(F)(F)F)nc1 [Example 54, N-[(3S)-5-pyrimidin-5-yl-3,4-dihydro-2H-chromen-3-yl]-6-(3,3,3-trifluoropropoxy)nicotinamide]",63.1
10,"COc1ncc(-c2cccc3c2C[C@H](NC(=O)c2ccc(OC(C)C)nc2)CO3)cn1 [Example 55, 6-isopropoxy-N-[(3S)-5-(2-methoxypyrimidin-5-yl)-3,4-dihydro-2H-chromen-3-yl]nicotinamide]",316
11,"COc1cc(-c2cccc3c2C[C@H](NC(=O)c2ccc(OC(C)C)nc2)CO3)ccn1 [Example 58, 6-isopropoxy-N-[(3S)-5-(2-methoxypyridin-4-yl)-3,4-dihydro-2H-chromen-3-yl]nicotinamide]",398
12,"COc1cc(-c2cccc3c2C[C@H](NC(=O)c2ccc(OCCC(F)(F)F)nc2)CO3)ccn1 [Example 59, N-[(3S)-5-(2-methoxypyridin-4-yl)-3,4-dihydro-2H-chromen-3-yl]-6-(3,3,3-trifluoropropoxy)nicotinamide]",126
13,"Cc1ncc(-c2cccc3c2C[C@H](NC(=O)c2ccc(OC(C)C)nc2)CO3)cn1 [Example 60, 6-isopropoxy-N-[(3S)-5-(2-methylpyrimidin-5-yl)-3,4-dihydro-2H-chromen-3-yl]nicotinamide]",158
14,"Cc1ncc(-c2cccc3c2C[C@H](NC(=O)c2ccc(OCCC(F)(F)F)nc2)CO3)cn1 [Example 61, N-[(3S)-5-(2-methylpyrimidin-5-yl)-3,4-dihydro-2H-chromen-3-yl]-6-(3,3,3-trifluoropropoxy)nicotinamide]",50.1
15,"CC(C)Oc1ccc(C(=O)N[C@@H]2COc3cccc(-c4ccnc(F)c4)c3C2)cn1 [Example 62, N-[(3S)-5-(2-fluoropyridin-4-yl)-3,4-dihydro-2H-chromen-3-yl]-6-isopropoxynicotinamide]",251
16,"O=C(N[C@@H]1COc2cccc(-c3ccnc(F)c3)c2C1)c1ccc(OCCC(F)(F)F)nc1 [Example 63, N-[(3S)-5-(2-fluoropyridin-4-yl)-3,4-dihydro-2H-chromen-3-yl]-6-(3,3,3-trifluoropropoxy)nicotinamide]",79.4
17,"Cc1cnccc1-c1cccc2c1C[C@H](NC(=O)c1ccc(OC(C)C)nc1)CO2 [Example 66, 6-isopropoxy-N-[(3S)-5-(3-methylpyridin-4-yl)-3,4-dihydro-2H-chromen-3-yl]nicotinamide]",158
18,"CC(C)Oc1ccc(C(=O)N[C@@H]2COc3cccc(-c4ccc(F)nc4)c3C2)cn1 [Example 67, N-[(3S)-5-(6-fluoropyridin-3-yl)-3,4-dihydro-2H-chromen-3-yl]-6-isopropoxynicotinamide]",501
19,"Cc1cnccc1-c1cccc2c1C[C@H](NC(=O)c1ccc(OCCC(F)(F)F)nc1)CO2 [Example 68, N-[(3S)-5-(3-methylpyridin-4-yl)-3,4-dihydro-2H-chromen-3-yl]-6-(3,3,3-trifluoropropoxy)nicotinamide]",100
20,"O=C(N[C@@H]1COc2cccc(-c3ccc(F)nc3)c2C1)c1ccc(OCCC(F)(F)F)nc1 [Example 69, N-[(3S)-5-(6-fluoropyridin-3-yl)-3,4-dihydro-2H-chromen-3-yl]-6-(3,3,3-trifluoropropoxy)nicotinamide]",79.4

# Other lines, results leading:
row,IC50 [nM],SMILES
1,158,"O=C(N[C@@H]1COc2cccc(-c3ccncc3)c2C1)c1ccc(OC2CCC2)nc1 [Example 29, 6-(cyclobutyloxy)-N-[(3S)-5-pyridin-4-yl-3,4-dihydro-2H-chromen-3-yl]nicotin-amide]"
2,200,"O=C(N[C@@H]1COc2cccc(-c3ccncc3)c2C1)c1ccc(OCC2CC2)nc1 [Example 30, 6-(cyclopropylmethoxy)-N-[(3S)-5-pyridin-4-yl-3,4-dihydro-2H-chromen-3-yl]nicotin-amide]"
3,631,"CCCCS(=O)(=O)c1ccc(C(=O)N[C@@H]2COc3cccc(-c4ccncc4)c3C2)cn1 [Example 34, 6-(butylsulfonyl)-N-[(3S)-5-pyridin-4-yl-3,4-dihydro-2H-chromen-3-yl]nicotinamide]"
4,631,"O=C(N[C@@H]1COc2cccc(-c3ccncc3)c2C1)c1ccc(Cl)nc1 [Example 35, 6-chloro-N-[(3S)-5-pyridin-4-yl-3,4-dihydro-2H-chromen-3-yl]nicotinamide]"
5,1260,"CC(C)Oc1ncc(C(=O)N[C@@H]2COc3cccc(-c4ccncc4)c3C2)cn1 [Example 36, 2-isopropoxy-N-[(3S)-5-pyridin-4-yl-3,4-dihydro-2H-chromen-3-yl]pyrimidine-5-carboxamide]"
6,1000,"COc1cnc(C(=O)N[C@@H]2COc3cccc(-c4ccncc4)c3C2)cn1 [Example 37, 5-methoxy-N-[(3S)-5-pyridin-4-yl-3,4-dihydro-2H-chromen-3-yl]pyrazine-2-carboxamide]"
7,631,"CC(C)Oc1cnc(C(=O)N[C@@H]2COc3cccc(-c4ccncc4)c3C2)cn1 [Example 38, 5-isopropoxy-N-[(3S)-5-pyridin-4-yl-3,4-dihydro-2H-chromen-3-yl]pyrazine-2-carboxamide]"
8,5010,"O=C(N[C@@H]1COc2cccc(-c3ccncc3)c2C1)c1cnc2ccccc2n1 [Example 41, N-[(3S)-5-pyridin-4-yl-3,4-dihydro-2H-chromen-3-yl]quinoxaline-2-carboxamide]"
9,1000,"CC(C)Oc1cnc(C(=O)N[C@@H]2COc3cccc(-c4cccnc4)c3C2)cn1 [Example 42, 5-isopropoxy-N-[(3S)-5-pyridin-3-yl-3,4-dihydro-2H-chromen-3-yl]pyrazine-2-carboxamide]"
10,501,"O=C(N[C@@H]1COc2cccc(-c3cccnc3)c2C1)c1cnc(OCCC(F)(F)F)cn1 [Example 43, N-[(3S)-5-pyridin-3-yl-3,4-dihydro-2H-chromen-3-yl]-5-(3,3,3-trifluoropropoxy)pyrazine-2-carboxamide]"
11,631,"COc1cnc(C(=O)N[C@@H]2COc3cccc(-c4cccnc4)c3C2)cn1 [Example 44, 5-methoxy-N-[(3S)-5-pyridin-3-yl-3,4-dihydro-2H-chromen-3-yl]pyrazine-2-carboxamide]"
12,1260,"O=C(N[C@@H]1COc2cccc(-c3cccnc3)c2C1)c1ccc2cccnc2n1 [Example 45, N-[(3S)-5-pyridin-3-yl-3,4-dihydro-2H-chromen-3-yl]-1,8-naphthyridine-2-carboxamide]"
13,3160,"O=C(N[C@@H]1COc2cccc(-c3cccnc3)c2C1)c1ccc2ncccc2n1 [Example 46, N-[(3S)-5-pyridin-3-yl-3,4-dihydro-2H-chromen-3-yl]-1,5-naphthyridine-2-carboxamide]"
14,1260,"COc1ccc(-c2cccc3c2C[C@H](NC(=O)c2cnc(OC)cn2)CO3)cn1 [Example 49, 5-methoxy-N-[(3S)-5-(6-methoxypyridin-3-yl)-3,4-dihydro-2H-chromen-3-yl]pyrazine-2-carboxamide]"
15,63.1,"CC(C)Oc1ccc(C(=O)N[C@@H]2COc3cccc(-c4cccnc4)c3C2)cn1 [Example 50, 6-isopropoxy-N-[(3S)-5-pyridin-3-yl-3,4-dihydro-2H-chromen-3-yl]nicotinamide]"
16,5010,"O=C(N[C@@H]1COc2cccc(-c3cccnc3)c2C1)c1ccc2ccccc2n1 [Example 65, N-[(3S)-5-pyridin-3-yl-3,4-dihydro-2H-chromen-3-yl]quinoline-2-carboxamide]"
